Reference: PubChem BioAssay (NCI)
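Five compound concentrations were applied to cells in 96-well plates for 48 hours; endpoints were derived by simple linear interpolation of the resulting dose-response curve. Definition used: TGI = concentration required for complete inhibition of growth.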

Tests used:
Assay in all cases: NCI-60 cell line screen, 48 h
SF-295 CNS = system: SF-295 CNS
COLO 205 colon = system: COLO 205 colon
M14 melanoma = system: M14 melanoma
HCT-116 colon = system: HCT-116 colon
MOLT-4 leukemia = system: MOLT-4 leukemia
HT29 colon = system: HT29 colon
UACC-257 melanoma = system: UACC-257 melanoma
NCI-H23 lung = system: NCI-H23 lung
UACC-62 melanoma = system: UACC-62 melanoma
OVCAR-8 ovarian = system: OVCAR-8 ovarian
KM12 colon = system: KM12 colon
OVCAR-4 ovarian = system: OVCAR-4 ovarian
SNB-75 CNS = system: SNB-75 CNS
SK-MEL-2 melanoma = system: SK-MEL-2 melanoma
TK-10 renal = system: TK-10 renal
UO-31 renal = system: UO-31 renal
HCC-2998 colon = system: HCC-2998 colon
HL-60(TB) leukemia = system: HL-60(TB) leukemia
786-0 renal = system: 786-0 renal
RPMI-8226 leukemia = system: RPMI-8226 leukemia
SF-268 CNS = system: SF-268 CNS
IGROV1 ovarian = system: IGROV1 ovarian
KM20L2 colon = system: KM20L2 colon
DMS 273 small cell lung = system: DMS 273 small cell lung
NCI-H460 lung = system: NCI-H460 lung
A549 NSCLC = system: A549 NSCLC
OVCAR-5 ovarian = system: OVCAR-5 ovarian
NCI-H522 lung = system: NCI-H522 lung
HOP-92 NSCLC = system: HOP-92 NSCLC
SW-620 colon = system: SW-620 colon
CAKI-1 renal = system: CAKI-1 renal
SNB-78 CNS = system: SNB-78 CNS
SF-539 CNS = system: SF-539 CNS
HOP-62 NSCLC = system: HOP-62 NSCLC
M19-MEL melanoma = system: M19-MEL melanoma
SR leukemia = system: SR leukemia
HCT-15 colon = system: HCT-15 colon
NCI-H226 lung = system: NCI-H226 lung
LXFL 529 NSCLC = system: LXFL 529 NSCLC
SK-MEL-28 melanoma = system: SK-MEL-28 melanoma
K-562 leukemia = system: K-562 leukemia
SN12C renal = system: SN12C renal
SNB-19 CNS = system: SNB-19 CNS
ACHN renal = system: ACHN renal
U251 CNS = system: U251 CNS
DLD-1 colon = system: DLD-1 colon
XF 498 CNS = system: XF 498 CNS
OVCAR-3 ovarian = system: OVCAR-3 ovarian
SK-OV-3 ovarian = system: SK-OV-3 ovarian
LOX IMVI melanoma = system: LOX IMVI melanoma
MALME-3M melanoma = system: MALME-3M melanoma
DMS 114 small cell lung = system: DMS 114 small cell lung
CCRF-CEM leukemia = system: CCRF-CEM leukemia
SK-MEL-5 melanoma = system: SK-MEL-5 melanoma
EKVX NSCLC = system: EKVX NSCLC
A498 renal = system: A498 renal
DU-145 prostate = system: DU-145 prostate
NCI/ADR-RES ovarian = system: NCI/ADR-RES ovarian
MDA-MB-231 breast = system: MDA-MB-231 breast
BT-549 breast = system: BT-549 breast
MDA-MB-435 = system: MDA-MB-435
HS 578T breast = system: HS 578T breast
T-47D breast = system: T-47D breast
RXF 393 renal = system: RXF 393 renal
MCF7 breast = system: MCF7 breast
MDA-N = system: MDA-N
PC-3 prostate = system: PC-3 prostate

CCc1n[nH]c(=S)n1/N=C/c1ccc(-c2ccc([N+](=O)[O-])cc2)o1
TGI (SF-295 CNS): > 100 µM
TGI (COLO 205 colon): > 100 µM
TGI (M14 melanoma): > 100 µM
TGI (HCT-116 colon): > 100 µM
TGI (MOLT-4 leukemia): > 100 µM
TGI (HT29 colon): > 100 µM
TGI (UACC-257 melanoma): > 100 µM
TGI (NCI-H23 lung): > 100 µM
TGI (UACC-62 melanoma): > 100 µM
TGI (OVCAR-8 ovarian): > 100 µM
TGI (KM12 colon): > 100 µM
TGI (OVCAR-4 ovarian): > 100 µM
TGI (SNB-75 CNS): > 100 µM
TGI (SK-MEL-2 melanoma): > 100 µM
TGI (TK-10 renal): > 100 µM
TGI (UO-31 renal): > 100 µM
TGI (HCC-2998 colon): > 100 µM
TGI (HL-60(TB) leukemia): > 100 µM
TGI (786-0 renal): > 100 µM
TGI (RPMI-8226 leukemia): > 100 µM
TGI (SF-268 CNS): > 100 µM
TGI (IGROV1 ovarian): > 100 µM
TGI (KM20L2 colon): > 100 µM
TGI (DMS 273 small cell lung): > 100 µM
TGI (NCI-H460 lung): > 100 µM
TGI (A549 NSCLC): > 100 µM
TGI (OVCAR-5 ovarian): > 100 µM
TGI (NCI-H522 lung): > 100 µM
TGI (HOP-92 NSCLC): > 100 µM
TGI (SW-620 colon): > 100 µM
TGI (CAKI-1 renal): > 100 µM
TGI (SNB-78 CNS): > 100 µM
TGI (SF-539 CNS): > 100 µM
TGI (HOP-62 NSCLC): > 100 µM
TGI (M19-MEL melanoma): > 100 µM
TGI (SR leukemia): > 100 µM
TGI (HCT-15 colon): > 100 µM
TGI (NCI-H226 lung): > 100 µM
TGI (LXFL 529 NSCLC): > 100 µM
TGI (SK-MEL-28 melanoma): > 100 µM
TGI (K-562 leukemia): > 100 µM
TGI (SN12C renal): > 100 µM
TGI (SNB-19 CNS): > 100 µM
TGI (ACHN renal): > 100 µM
TGI (U251 CNS): > 100 µM
TGI (DLD-1 colon): > 100 µM
TGI (XF 498 CNS): > 100 µM
TGI (OVCAR-3 ovarian): > 100 µM
TGI (SK-OV-3 ovarian): > 100 µM
TGI (LOX IMVI melanoma): > 100 µM
TGI (MALME-3M melanoma): > 100 µM

N#C/C(=C/c1cccc2ccccc12)C(=O)c1ccccc1
TGI (SF-295 CNS): 44.4 µM
TGI (M14 melanoma): 30.6 µM
TGI (HCT-116 colon): 34.4 µM
TGI (MOLT-4 leukemia): 38.2 µM
TGI (HT29 colon): > 100 µM
TGI (UACC-257 melanoma): > 10 µM
TGI (NCI-H23 lung): 32.2 µM
TGI (UACC-62 melanoma): 38.4 µM
TGI (OVCAR-8 ovarian): > 100 µM
TGI (DMS 114 small cell lung): > 100 µM
TGI (KM12 colon): 43.2 µM
TGI (CCRF-CEM leukemia): 39 µM
TGI (OVCAR-4 ovarian): > 100 µM
TGI (SK-MEL-2 melanoma): 41.6 µM
TGI (TK-10 renal): > 100 µM
TGI (UO-31 renal): 35.9 µM
TGI (HCC-2998 colon): 49.2 µM
TGI (HL-60(TB) leukemia): 46.9 µM
TGI (786-0 renal): 30.3 µM
TGI (RPMI-8226 leukemia): 69.6 µM
TGI (IGROV1 ovarian): 54.8 µM
TGI (SK-MEL-5 melanoma): > 10 µM
TGI (KM20L2 colon): 37.1 µM
TGI (NCI-H460 lung): 78.2 µM
TGI (EKVX NSCLC): > 10 µM
TGI (A549 NSCLC): > 10 µM
TGI (OVCAR-5 ovarian): 50.1 µM
TGI (NCI-H522 lung): 54.6 µM
TGI (SW-620 colon): 32 µM
TGI (CAKI-1 renal): > 100 µM
TGI (SNB-78 CNS): > 100 µM
TGI (A498 renal): 55.3 µM
TGI (SF-539 CNS): 34.9 µM
TGI (HOP-62 NSCLC): 41.1 µM
TGI (M19-MEL melanoma): 86.6 µM
TGI (SR leukemia): 88.3 µM
TGI (HCT-15 colon): 39.3 µM
TGI (NCI-H226 lung): 47.9 µM
TGI (SK-MEL-28 melanoma): 30 µM
TGI (K-562 leukemia): > 10 µM
TGI (SN12C renal): 85.6 µM
TGI (SNB-19 CNS): 41.6 µM
TGI (ACHN renal): > 10 µM
TGI (U251 CNS): 37.9 µM
TGI (XF 498 CNS): 39.3 µM
TGI (OVCAR-3 ovarian): > 100 µM
TGI (SK-OV-3 ovarian): > 100 µM
TGI (LOX IMVI melanoma): 39.3 µM
TGI (MALME-3M melanoma): 47.6 µM

CN(C)C(=S)NC(=S)Nc1ccc2ccccc2c1
TGI (SF-295 CNS): 18.8 µM
TGI (COLO 205 colon): 39 µM
TGI (M14 melanoma): 50.4 µM
TGI (HCT-116 colon): 27 µM
TGI (MOLT-4 leukemia): 34.4 µM
TGI (HT29 colon): 25.3 µM
TGI (UACC-257 melanoma): 24.2 µM
TGI (NCI-H23 lung): 43.9 µM
TGI (UACC-62 melanoma): 26.9 µM
TGI (DU-145 prostate): 77.9 µM
TGI (NCI/ADR-RES ovarian): 59.6 µM
TGI (OVCAR-8 ovarian): 68.8 µM
TGI (KM12 colon): 37.6 µM
TGI (CCRF-CEM leukemia): 10.5 µM
TGI (OVCAR-4 ovarian): > 100 µM
TGI (MDA-MB-231 breast): 48.1 µM
TGI (SNB-75 CNS): 62.5 µM
TGI (BT-549 breast): 53.9 µM
TGI (SK-MEL-2 melanoma): 41.6 µM
TGI (TK-10 renal): > 89.4 µM
TGI (UO-31 renal): 48 µM
TGI (HCC-2998 colon): 36.6 µM
TGI (HL-60(TB) leukemia): 51.7 µM
TGI (786-0 renal): > 64.8 µM
TGI (RPMI-8226 leukemia): 45 µM
TGI (SF-268 CNS): 47.3 µM
TGI (MDA-MB-435): 68 µM
TGI (IGROV1 ovarian): 34.6 µM
TGI (SK-MEL-5 melanoma): 25 µM
TGI (KM20L2 colon): 23.7 µM
TGI (DMS 273 small cell lung): 14.1 µM
TGI (NCI-H460 lung): 22.4 µM
TGI (EKVX NSCLC): 51.1 µM
TGI (A549 NSCLC): > 31.5 µM
TGI (OVCAR-5 ovarian): 60.1 µM
TGI (NCI-H522 lung): 32 µM
TGI (HS 578T breast): 97.8 µM
TGI (HOP-92 NSCLC): 48.1 µM
TGI (SW-620 colon): > 75.2 µM
TGI (CAKI-1 renal): 65.3 µM
TGI (T-47D breast): 46 µM
TGI (SNB-78 CNS): 77.5 µM
TGI (A498 renal): 48.3 µM
TGI (SF-539 CNS): 31.6 µM
TGI (RXF 393 renal): 65.8 µM
TGI (HOP-62 NSCLC): 46.2 µM
TGI (SR leukemia): 35.8 µM
TGI (HCT-15 colon): 59.9 µM
TGI (NCI-H226 lung): 31.5 µM
TGI (LXFL 529 NSCLC): 21.9 µM
TGI (SK-MEL-28 melanoma): 40.3 µM
TGI (MCF7 breast): 37.1 µM
TGI (MDA-N): 42.1 µM
TGI (K-562 leukemia): 23.3 µM
TGI (SN12C renal): 31.9 µM
TGI (PC-3 prostate): 38.3 µM
TGI (SNB-19 CNS): > 72.1 µM
TGI (ACHN renal): > 83 µM
TGI (U251 CNS): > 46.9 µM
TGI (XF 498 CNS): 33.3 µM
TGI (OVCAR-3 ovarian): 57.8 µM
TGI (SK-OV-3 ovarian): 55.3 µM
TGI (LOX IMVI melanoma): 19.6 µM
TGI (MALME-3M melanoma): 35.1 µM
